Experimental data as given in patent US4404217A, “3-Indolyl alkylene amino propanols and cardiovascular compositions thereof” (C. M. Industries, priority 1979, dated 1983).

Target: T1, β adrenergic receptors (β1) (Canis lupus familiaris, UniProt P79148)
T1 construct: The dog is anaesthetized using sodium pentobarbital; from tissue; host or cells: whole anaesthetized dog (heart)
Test: Antagonism of the effects of isoprenaline, tachycardia (β1), anaesthetized dog, IV
Assay type: in vivo
Conditions: dog, IV; isoprenaline antagonism, β1 versus β2

T1 sequence (P79148 whole entry): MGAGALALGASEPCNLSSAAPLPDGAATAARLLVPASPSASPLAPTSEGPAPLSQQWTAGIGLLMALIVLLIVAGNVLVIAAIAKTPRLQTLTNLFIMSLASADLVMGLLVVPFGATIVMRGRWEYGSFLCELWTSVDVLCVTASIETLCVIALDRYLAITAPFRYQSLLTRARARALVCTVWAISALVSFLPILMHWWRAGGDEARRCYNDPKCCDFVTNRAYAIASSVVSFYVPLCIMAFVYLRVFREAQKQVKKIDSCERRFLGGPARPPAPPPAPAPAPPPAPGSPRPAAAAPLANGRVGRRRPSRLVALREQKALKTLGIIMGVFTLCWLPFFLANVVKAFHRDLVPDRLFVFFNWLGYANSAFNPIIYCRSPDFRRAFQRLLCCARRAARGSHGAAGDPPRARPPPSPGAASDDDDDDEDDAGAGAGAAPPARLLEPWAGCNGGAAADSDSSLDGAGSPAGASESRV

SMILES	cardioselectivity β1 - β2
CC(Cc1c[nH]c2ccc(Cl)cc12)NCC(O)COc1ccc(CC(N)=O)cc1 (stereo not shown) [compound 7859]	β1 > β2 (cardioselectivity (β1 >β2))
CC(Cc1c[nH]c2ccccc12)NCC(O)COc1ccccc1C(=O)c1ccccc1 (stereo not shown) [compound 7904]	β1 ≥ β2 (low cardioselectivity β1 ≥β2)
Cc1cccc(OCC(O)CNC(C)Cc2c[nH]c3ccccc23)c1 (stereo not shown) [compound 7782]	β1 > β2 (cardioselectivity (β1 >β2))
CC(Cc1c[nH]c2ccc(F)cc12)NCC(O)COc1ccccc1 (stereo not shown) [compound 40038]	β1 > β2 (cardioselectivity (β1 >β2))
Cc1ccccc1OCC(O)CNC(C)Cc1c[nH]c2ccc(F)cc12 (stereo not shown) [compound 7983]	β1 > β2 (cardioselectivity (β1 >β2))
CCCC(=O)Nc1ccc(OCC(O)CNC(C)Cc2c[nH]c3ccccc23)c(C(C)=O)c1 (stereo not shown) [compound 7798]	β1 > β2 (cardioselectivity (β1 >β2))

Same assay, conditions: dog, iv, read-out: ID50 ISOPRENALINE β1

SMILES	ED50
CC(Cc1c[nH]c2ccc(Cl)cc12)NCC(O)COc1ccc(CC(N)=O)cc1 (stereo not shown) [compound 7859]	0.3 to 1 mg/kg
CC(Cc1c[nH]c2ccccc12)NCC(O)COc1ccccc1C(=O)c1ccccc1 (stereo not shown) [compound 7904]	≤ 0.1 mg/kg
Cc1cccc(OCC(O)CNC(C)Cc2c[nH]c3ccccc23)c1 (stereo not shown) [compound 7782]	0.1 to 0.3 mg/kg
CC(Cc1c[nH]c2ccc(F)cc12)NCC(O)COc1ccccc1 (stereo not shown) [compound 40038]	0.1 mg/kg
Cc1ccccc1OCC(O)CNC(C)Cc1c[nH]c2ccc(F)cc12 (stereo not shown) [compound 7983]	0.3 mg/kg
CCCC(=O)Nc1ccc(OCC(O)CNC(C)Cc2c[nH]c3ccccc23)c(C(C)=O)c1 (stereo not shown) [compound 7798]	1 mg/kg

Same assay, conditions: test with isoprenaline

SMILES	cardioselective in vivo (selectively inhibit the cardiac receptors)
CC(Cc1c[nH]c2ccc(Cl)cc12)NCC(O)COc1ccc(CC(N)=O)cc1 (stereo not shown) [compound 7859]	cardioselective in vivo
Cc1cccc(OCC(O)CNC(C)Cc2c[nH]c3ccccc23)c1 (stereo not shown) [compound 7782]	cardioselective in vivo
CC(Cc1c[nH]c2ccc(F)cc12)NCC(O)COc1ccccc1 (stereo not shown) [compound 40038]	cardioselective in vivo
Cc1ccccc1OCC(O)CNC(C)Cc1c[nH]c2ccc(F)cc12 (stereo not shown) [compound 7983]	cardioselective in vivo
CCCC(=O)Nc1ccc(OCC(O)CNC(C)Cc2c[nH]c3ccccc23)c(C(C)=O)c1 (stereo not shown) [compound 7798]	cardioselective in vivo

Target: T2, β1 receptor (Canis lupus familiaris, UniProt P79148)
T2 construct: plasmic membranes of hearts of dogs (β1 receptor); from tissue; host or cells: dog heart plasma membranes
T2 sequence (P79148 whole entry): as above
Test: Displacement of 3H dihydroalprenolol, plasmic membranes of hearts of dogs
Assay type: binding, dog
Conditions: not given
Experimental: (§1) The binding tests are effected on suspensions of plasmic membranes coming from various organs. The suspensions of membranes are placed in incubation with the tritiated ligand and various concentrations of products to be tested. After incubation, each test is filtered on GFB(Whatman) filter, the filters are dried and introduced into counting flasks. The measurement of the radioactivity is assessed by scintillation in a liquid medium.
(§2) The tests were made on plasmic membranes of hearts of dogs (β1 receptor) and lungs of rats (β2 receptors), in the presence of ^3 H dihydroalprenolol 4×10^-9 M.

SMILES	EC50
CC(Cc1c[nH]c2ccccc12)NCC(O)COc1ccccc1C(=O)c1ccccc1 (stereo not shown) [compound 7904]	7.9 nM
Cc1cccc(OCC(O)CNC(C)Cc2c[nH]c3ccccc23)c1 (stereo not shown) [compound 7782]	53 nM
CC(Cc1c[nH]c2ccc(F)cc12)NCC(O)COc1ccccc1 (stereo not shown) [compound 40038]	34 nM
Cc1ccccc1OCC(O)CNC(C)Cc1c[nH]c2ccc(F)cc12 (stereo not shown) [compound 7983]	19 nM

Same assay, conditions: dog heart membranes; 3H dihydroalprenolol 4×10^-9 M

SMILES	EC50
CC(Cc1c[nH]c2ccc(Cl)cc12)NCC(O)COc1ccc(CC(N)=O)cc1 (stereo not shown) [compound 7859]	625 nM
CCCC(=O)Nc1ccc(OCC(O)CNC(C)Cc2c[nH]c3ccccc23)c(C(C)=O)c1 (stereo not shown) [compound 7798]	550 nM

Same assay, conditions: in vitro, compared with lung β2 (A5)

SMILES	affinity for β1 receptors (heart) versus β2 receptors (lungs)
CCCC(=O)Nc1ccc(OCC(O)CNC(C)Cc2c[nH]c3ccccc23)c(C(C)=O)c1 (stereo not shown) [compound 7798]	clearly greater affinity for the β1 receptors (heart) than for the β2 receptors (lungs)

Tested on: platelet aggregation
Test: Anti-aggregating activity, BORN technique, plasma rich in platelets, ADP
Assay type: cell-based, human
Conditions: human platelet-rich plasma
Experimental: The anti-aggregating activity of the CM 7743, 7744, 7824, 7854, 7859 and 7874 has been studied according to the BORN technique on plasma rich in platelets of human origin. ADP has been used as indicator of platelet aggregation. […] The required concentration for inhibiting by 50% the maximum rate of aggregation varies from 45 to 100 μM.

SMILES	inhibition of the platelet response with respect to the ADP
CC(Cc1c[nH]c2ccc(Cl)cc12)NCC(O)COc1ccc(CC(N)=O)cc1 (stereo not shown) [compound 7859]	inhibited the platelet response

Same assay, conditions: human platelet-rich plasma, ADP; range over all products tested; read-out: concentration for inhibiting by 50% the maximum rate of aggregation

SMILES	IC50
CC(Cc1c[nH]c2ccc(Cl)cc12)NCC(O)COc1ccc(CC(N)=O)cc1 (stereo not shown) [compound 7859]	45000 to 100000 nM

Target: T3, β2 receptors (Rattus norvegicus, UniProt P10608)
T3 construct: lungs of rats (β2 receptors); from tissue; host or cells: rat lung plasma membranes
T3 sequence (P10608 whole entry): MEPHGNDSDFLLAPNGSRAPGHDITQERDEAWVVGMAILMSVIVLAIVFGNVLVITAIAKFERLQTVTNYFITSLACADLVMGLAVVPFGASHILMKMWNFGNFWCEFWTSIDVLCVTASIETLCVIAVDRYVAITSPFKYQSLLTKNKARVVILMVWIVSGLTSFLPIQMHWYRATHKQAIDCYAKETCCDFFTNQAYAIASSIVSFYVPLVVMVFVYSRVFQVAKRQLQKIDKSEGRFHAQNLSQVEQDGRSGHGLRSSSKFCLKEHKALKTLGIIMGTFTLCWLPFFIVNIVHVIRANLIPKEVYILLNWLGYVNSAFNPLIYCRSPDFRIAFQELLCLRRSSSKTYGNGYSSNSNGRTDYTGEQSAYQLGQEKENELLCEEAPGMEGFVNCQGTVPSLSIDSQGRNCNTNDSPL
Test: Displacement of 3H dihydroalprenolol, plasmic membranes of lungs of rats
Assay type: binding
Conditions: not given
Experimental: as §1, §2

SMILES	EC50
CC(Cc1c[nH]c2ccccc12)NCC(O)COc1ccccc1C(=O)c1ccccc1 (stereo not shown) [compound 7904]	14 nM
Cc1cccc(OCC(O)CNC(C)Cc2c[nH]c3ccccc23)c1 (stereo not shown) [compound 7782]	61.5 nM
CC(Cc1c[nH]c2ccc(F)cc12)NCC(O)COc1ccccc1 (stereo not shown) [compound 40038]	29 nM
Cc1ccccc1OCC(O)CNC(C)Cc1c[nH]c2ccc(F)cc12 (stereo not shown) [compound 7983]	47 nM

Same assay, conditions: rat lung membranes; 3H dihydroalprenolol 4×10^-9 M

SMILES	EC50
CC(Cc1c[nH]c2ccc(Cl)cc12)NCC(O)COc1ccc(CC(N)=O)cc1 (stereo not shown) [compound 7859]	1000 nM

Target: T4, β adrenergic receptors (β2) (Canis lupus familiaris, UniProt P54833)
T4 construct: The dog is anaesthetized using sodium pentobarbital; from tissue; host or cells: whole anaesthetized dog (vasculature)
T4 sequence (P54833 whole entry): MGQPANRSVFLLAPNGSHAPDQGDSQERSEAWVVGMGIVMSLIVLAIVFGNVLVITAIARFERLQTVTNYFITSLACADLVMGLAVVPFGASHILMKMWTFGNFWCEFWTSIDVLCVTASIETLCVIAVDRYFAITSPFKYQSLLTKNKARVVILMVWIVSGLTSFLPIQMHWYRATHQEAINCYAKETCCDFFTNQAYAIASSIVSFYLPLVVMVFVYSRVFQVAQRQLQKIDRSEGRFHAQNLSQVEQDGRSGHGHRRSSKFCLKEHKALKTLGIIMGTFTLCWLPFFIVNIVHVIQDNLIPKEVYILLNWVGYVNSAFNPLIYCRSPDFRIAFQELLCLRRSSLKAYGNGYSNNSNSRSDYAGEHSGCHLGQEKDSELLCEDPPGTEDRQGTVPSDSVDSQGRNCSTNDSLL
Test: Antagonism of the effects of isoprenaline, hypotension (β2), anaesthetized dog, IV
Assay type: in vivo
Conditions: IV, 50% inhibition of isoprenaline hypotension, read-out: ID50 ISOPRENALINE β2
Experimental: (§3) The dog is anaesthetized using sodium pentobarbital, administered by the IV route at a dose of 30 mg/kg. A cannula placed in the saphenous vein allows the intra-venous injections of the products. The animal is submitted to intubation and is allowed to breathe spontaneously.
(§4) The cardiac frequency and the systemic arterial pressure are studied and the variations of these parameters are observed after intra-venous injection of the product to be tested. Each product is tested with increasing doses.
The antagonism of the products with respect to the β stimulant cardio-vascular effects of isoprenaline on the β adrenergic receptors has been sought. […] The last column indicates the cardioselectivity (β1 >β2) or a low cardioselectivity β1 ≥β2, or no cardioselectivity β1 <β2 and β1 =β2.

SMILES	ED50
CC(Cc1c[nH]c2ccc(Cl)cc12)NCC(O)COc1ccc(CC(N)=O)cc1 (stereo not shown) [compound 7859]	≥ 3 mg/kg
CC(Cc1c[nH]c2ccccc12)NCC(O)COc1ccccc1C(=O)c1ccccc1 (stereo not shown) [compound 7904]	0.1 mg/kg
Cc1cccc(OCC(O)CNC(C)Cc2c[nH]c3ccccc23)c1 (stereo not shown) [compound 7782]	≥ 3 mg/kg
CC(Cc1c[nH]c2ccc(F)cc12)NCC(O)COc1ccccc1 (stereo not shown) [compound 40038]	> 0.3 mg/kg
CCCC(=O)Nc1ccc(OCC(O)CNC(C)Cc2c[nH]c3ccccc23)c(C(C)=O)c1 (stereo not shown) [compound 7798]	≥ 3 mg/kg

Same assay, conditions: iv, read-out: ID50 ISOPRENALINE β2

SMILES	ED50
Cc1ccccc1OCC(O)CNC(C)Cc1c[nH]c2ccc(F)cc12 (stereo not shown) [compound 7983]	> 0.3 mg/kg

Tested on: not listed separately
Test: Cardiac frequency and arterial pressure in the anaesthetized dog after intravenous injection
Assay type: in vivo
Conditions: i.v. route, anaesthetised dog
Experimental: as §3, §4

SMILES	reduction in the peripheral arterial pressure
CC(Cc1c[nH]c2ccc(F)cc12)NCC(O)COc1ccccc1 (stereo not shown) [compound 40038]	reduction in the peripheral arterial pressure

Target: T5, α2 receptor (Rattus norvegicus, UniProt P22909)
T5 construct: plasmic membranes of rat brains; from tissue; host or cells: rat brain plasma membranes
T5 sequence (P22909 1-465): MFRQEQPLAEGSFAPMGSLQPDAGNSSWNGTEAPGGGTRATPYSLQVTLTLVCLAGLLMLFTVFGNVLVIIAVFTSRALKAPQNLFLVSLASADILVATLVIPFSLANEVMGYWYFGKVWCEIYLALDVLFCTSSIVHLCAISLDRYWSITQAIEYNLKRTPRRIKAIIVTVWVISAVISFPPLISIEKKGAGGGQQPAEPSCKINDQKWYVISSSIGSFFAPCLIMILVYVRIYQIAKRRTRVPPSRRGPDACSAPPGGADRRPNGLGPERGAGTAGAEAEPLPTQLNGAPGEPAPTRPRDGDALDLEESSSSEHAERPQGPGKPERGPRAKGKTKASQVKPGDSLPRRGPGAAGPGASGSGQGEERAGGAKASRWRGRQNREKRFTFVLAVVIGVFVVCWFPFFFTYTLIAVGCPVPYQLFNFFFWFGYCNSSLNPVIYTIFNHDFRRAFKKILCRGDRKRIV
Test: Displacement of 3H clonidine, plasmic membranes of rat brains
Assay type: binding
Conditions: not given
Experimental: as §1
(§5) The tests were made on plasmic membranes of rat brains, in the presence of ^3 H clonidine 1.2×10^-9 M (α2 receptor) and of ^3 H WB4101 (N-[2-(2.6dimethoxyphenoxy)ethyl]1.4benzodioxane-2-methylamine), 0.2×10^-9 M (α1 receptor).

SMILES	EC50
CC(Cc1c[nH]c2ccc(Cl)cc12)NCC(O)COc1ccc(CC(N)=O)cc1 (stereo not shown) [compound 7859]	19 nM

Same assay, conditions: in vitro

SMILES	affinity for the receptor with clonidine (α2)
CC(Cc1c[nH]c2ccc(Cl)cc12)NCC(O)COc1ccc(CC(N)=O)cc1 (stereo not shown) [compound 7859]	no affinity
Cc1cccc(OCC(O)CNC(C)Cc2c[nH]c3ccccc23)c1 (stereo not shown) [compound 7782]	no affinity
CC(Cc1c[nH]c2ccc(F)cc12)NCC(O)COc1ccccc1 (stereo not shown) [compound 40038]	no affinity

Same assay, conditions: rat brain membranes; 3H clonidine 1.2×10^-9 M

SMILES	EC50
Cc1cccc(OCC(O)CNC(C)Cc2c[nH]c3ccccc23)c1 (stereo not shown) [compound 7782]	30 nM

Tested on: α adrenergic receptors
Test: Antagonism of the effects of noradrenaline (pressure response), anaesthetized dog, IV
Assay type: in vivo
Conditions: 50% inhibition of pressure response to noradrenaline
Experimental: as §3, §4
The antagonism of the products with respect to the vascular effects provoked by the IV administration of noradrenaline on the α adrenergic receptors has been sought. The results presented in Table III are expressed in ID50 : it is the dose (mg/kg) which provokes the inhibition by 50% of the pressure response due to the IV administration of noradrenaline.

SMILES	ID50 NORADRENALINE α
CC(Cc1c[nH]c2ccc(Cl)cc12)NCC(O)COc1ccc(CC(N)=O)cc1 (stereo not shown) [compound 7859]	0.3 to 3 mg/kg
CC(Cc1c[nH]c2ccccc12)NCC(O)COc1ccccc1C(=O)c1ccccc1 (stereo not shown) [compound 7904]	> 0.3 mg/kg
Cc1cccc(OCC(O)CNC(C)Cc2c[nH]c3ccccc23)c1 (stereo not shown) [compound 7782]	0.3 mg/kg
CC(Cc1c[nH]c2ccc(F)cc12)NCC(O)COc1ccccc1 (stereo not shown) [compound 40038]	0.1 mg/kg
Cc1ccccc1OCC(O)CNC(C)Cc1c[nH]c2ccc(F)cc12 (stereo not shown) [compound 7983]	> 0.3 mg/kg
CCCC(=O)Nc1ccc(OCC(O)CNC(C)Cc2c[nH]c3ccccc23)c(C(C)=O)c1 (stereo not shown) [compound 7798]	> 3 mg/kg

Tested on: α1 receptor
Test: Displacement of 3H WB 4101, plasmic membranes of rat brains
Assay type: binding
Conditions: in vitro
Experimental: as §1, §5

SMILES	affinity for the receptor with WB 4101 (α1)
Cc1ccccc1OCC(O)CNC(C)Cc1c[nH]c2ccc(F)cc12 (stereo not shown) [compound 7983]	have an affinity

Same assay, conditions: read-out: EC50 of DISPLACEMENT of 3H WB 4101; rat brain membranes; 3H WB4101 0.2×10^-9 M

SMILES	EC50
CC(Cc1c[nH]c2ccc(Cl)cc12)NCC(O)COc1ccc(CC(N)=O)cc1 (stereo not shown) [compound 7859]	2.3 nM
Cc1ccccc1OCC(O)CNC(C)Cc1c[nH]c2ccc(F)cc12 (stereo not shown) [compound 7983]	600 nM
